One assay has as its target T1, Hsp104^WT (Saccharomyces cerevisiae, UniProt P31539).
T1 construct: made in house; host or cells: E. coli BL21-DE3 RIL
Briefly: Manual ATPase assay, Hsp104^WT. It is filed as biochemical, yeast. The note with it: for Normalized ATPase Activity: Figure 2B. As for the experimental part: Wild-type or mutant Hsp104 (0.25 µM monomer) in ATPase buffer (20 mM HEPES-KOH pH 7.4, 20 mM NaCl and 10 mM MgCl2) was incubated for 60 or 10 min at 25°C in the presence of ATP (1 mM) as noted. ATPase activity was assessed by the release of inorganic phosphate determined by using a malachite green phosphate detection kit (Innova).

Assay [1] concerns the target T2, Hsp104 with Hsp70 and Hsp40 (Saccharomyces cerevisiae, UniProt P31539).
T2 construct: host or cells: E. coli BL21-DE3 RIL (Hsp104)
Briefly: Luciferase reactivation with Hsp70, Hsp40 and Hsp104 plus ATP. The format is biochemical. Particulars: for Normalized Luciferase Refolding Activity: Figure 3D, 70/40/104 (Hsp70 1 µM, Hsp40 1 µM, ATP). The method, then:
Luciferase reactivation was performed as described, [37]. To assemble aggregates, firefly luciferase (50 µM) in luciferase refolding buffer (LRB, 25 mM HEPES-KOH, 7.4, 150 mM KAOc, 10 mM MgAOc, 10 mM DTT) with 6 M urea was incubated at 30°C for 20 min. Luciferase was then rapidly diluted 100-fold into LRB, divided into 100 µL aliquots, snap frozen in liquid N2, and stored at −80°C. For reactivation assays, aggregated luciferase (50 nM) was incubated with Hsp104 (1 µM hexamer), plus 2.6 mM ATPγS, 2.6 mM ATP and an ATP regeneration system (1 mM creatine phosphate, 0.25 µM creatine kinase (Roche Applied Science)) for 90 minutes at 25°C. Luciferase assay system was purchased from Promega. Luciferase activity was assessed by luminescence measured on a Safire^2 microplate reader (Tecan, Männedorf, Switzerland). The half maximal inhibitory concentration (IC50) was calculating by fitting luciferase-refolding data at different Suramin concentrations with Prism (GraphPad Software, Inc., La Jolla, CA).
(A) Urea-denatured firefly luciferase aggregates were incubated for 90 min at 25°C with Hsp104 (1 µM hexamer) plus 1∶1 mixtures of ATP and ATPγS and varying concentrations of GdmCl. Luciferase reactivation was then determined and converted to % WT disaggregase activity in the presence of ATPγS: ATP. Values represent mean ±S.D. (n = 3–6). (B) Reactions were performed as in (A) except varying concentrations of Suramin were used. Values represent mean ±S.D. (n = 6–10). (C) Half maximal inhibitory concentration (IC50) for Suramin-mediated inhibition of Hsp104. IC50 was calculating by fitting luciferase-refolding data at different Suramin concentrations. (D) Reactions were performed as in (A) except that 1∶1 mixtures of ATP and ATPγS were replaced with Hsp70 (1 µM) and Hsp40 (1 µM) plus ATP. The Hsp104 alone condition (yellow bars) was carried out with 1∶1 mixtures of ATP and ATPγS as in (A). Each condition is normalized to the refolding activity in each corresponding condition in the absence of inhibitor.

For assay [2], the system named is HAP (Hsp104 variant) with ClpP. Briefly: FITC-casein degradation (substrate translocation) assay. The format is biochemical. The note with it: 25°C. The method, then:
FITC-casein (0.1 µM) was incubated with HAP (1 µM hexamer) and ClpP (21 µM monomer) at 25°C. ATP ([…]) and an ATP-regenerating system were included in all reactions. Varying concentrations of Suramin (0, 25, or 100 µM) were included as noted. We monitored degradation of FITC-casein by measuring fluorescence (excitation 490 nm, emission 520 nm) using a Tecan Safire^2 microplate reader (Tecan, Männedorf, Switzerland).
Next, we established that Suramin hampers substrate translocation by Hsp104 using an engineered Hsp104 variant, HAP, which anchors to the bacterial peptidase ClpP to form a novel proteolytic system. Thus, HAP translocates fluorescein isothiocyanate (FITC)-casein for degradation by ClpP. Fluorescence increases as FITC is released from degraded casein and can be used as a surrogate for substrate translocation. […] Note that both the unfolding and translocation activities appear less sensitive to Suramin than disaggregase activity ( Figures 3B , 4A and 4B ). Thus, disaggregation of protein aggregates makes more stringent demands on the Hsp104 hexamer than the unfolding or translocation of soluble substrates. Altogether, we have established that Suramin greatly decreases Hsp104 ATPase activity, drastically impairs its capacity to refold luciferase and hinders its substrate unfolding and translocation activities.

The target of another assay is T3, Hsp104 (Saccharomyces cerevisiae, UniProt P31539).
T3 construct: made in house; host or cells: E. coli BL21-DE3 RIL
T3 sequence (P31539 whole entry): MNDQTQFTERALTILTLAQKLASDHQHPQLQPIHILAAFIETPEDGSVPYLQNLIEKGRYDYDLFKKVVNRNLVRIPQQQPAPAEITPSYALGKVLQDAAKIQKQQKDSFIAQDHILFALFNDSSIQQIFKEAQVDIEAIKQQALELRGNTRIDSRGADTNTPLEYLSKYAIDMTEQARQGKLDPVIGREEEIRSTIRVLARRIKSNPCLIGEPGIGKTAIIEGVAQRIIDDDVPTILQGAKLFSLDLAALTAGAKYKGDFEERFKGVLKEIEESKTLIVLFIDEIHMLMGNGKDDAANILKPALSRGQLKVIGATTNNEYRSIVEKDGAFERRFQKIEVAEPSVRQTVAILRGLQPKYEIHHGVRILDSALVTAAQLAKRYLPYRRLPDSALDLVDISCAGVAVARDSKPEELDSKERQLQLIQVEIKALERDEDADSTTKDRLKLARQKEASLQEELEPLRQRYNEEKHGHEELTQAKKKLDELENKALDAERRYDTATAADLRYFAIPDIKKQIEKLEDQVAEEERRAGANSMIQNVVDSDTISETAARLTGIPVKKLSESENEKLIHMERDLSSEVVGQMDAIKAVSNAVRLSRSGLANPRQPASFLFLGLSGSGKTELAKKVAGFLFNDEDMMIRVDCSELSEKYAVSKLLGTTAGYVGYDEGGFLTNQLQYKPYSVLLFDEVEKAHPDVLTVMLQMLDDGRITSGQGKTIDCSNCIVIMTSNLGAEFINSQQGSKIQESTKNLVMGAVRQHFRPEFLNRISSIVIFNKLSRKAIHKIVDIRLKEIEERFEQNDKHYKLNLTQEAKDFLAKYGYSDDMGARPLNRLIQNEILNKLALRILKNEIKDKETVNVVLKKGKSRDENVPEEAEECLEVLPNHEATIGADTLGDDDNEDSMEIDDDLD
Briefly: Gel filtration of Hsp104 (hexamerization). On the set-up: species or system yeast. The note with it: Suramin 100 µM, with or without ATP 1 mM. As for the experimental part: Hsp104 was diluted into ATPase buffer with or without Suramin (100 µM) in the presence or absence of ATP (1 mM). The Hsp104 concentration was adjusted to 120 µM monomer and 20 µL of sample were fractionated by a Superdex 200 10/300 column (GE Healthcare Life Sciences, Piscataway, NJ) at room temperature and at a flow rate of 0.5 mL per minute in line with an Optilab T-rEX Refractive Interferometer (Wyatt Technologies, Santa Barbara, CA). Molecular weight markers were purchased from Bio-Rad Laboratories (Hercules, CA).
(In general: SEC sorts molecules by how far they enter the pores of the column.)

T2 sequence (P31539 whole entry): as above
T1 sequence (P31539 whole entry): as above

On to `Cc1ccc(C(=O)Nc2ccc(S(=O)(=O)O)c3cc(S(=O)(=O)O)cc(S(=O)(=O)O)c23)cc1NC(=O)c1cccc(NC(=O)Nc2cccc(C(=O)Nc3cc(C(=O)Nc4ccc(S(=O)(=O)O)c5cc(S(=O)(=O)O)cc(S(=O)(=O)O)c45)ccc3C)c2)c1` [Suramin], for which, on Hsp104^WT (10 min reaction, ATP 1 mM), the IC50 was roughly 3.39 µM. On Hsp104^WT (60 min, ATP 1 mM, varying concentrations, Figure 2A), the “Effect on Hsp104 ATPase activity (Pi produced), manual assay” value is reported as “greatly diminished the amount of Pi produced in a concentration-dependent manner”. Moreover, the “Inhibitor concentration of maximal ATPase inhibition” value at Hsp104^WT (Hsp104 WT) was 25 µM. The “Normalized ATPase Activity” value on Hsp104^WT (Suramin 1 µM, 10 min, ATP 1 mM) turned out to be 1.08; at Hsp104^WT (Suramin 5 µM, 10 min, ATP 1 mM) it was 0.62; at Hsp104^WT (Suramin 10 µM, 10 min, ATP 1 mM) it was 0.37; at Hsp104^WT (Suramin 25 µM, 10 min, ATP 1 mM), 0.27; at Hsp104^WT (Suramin 50 µM, 10 min, ATP 1 mM) it was 0.29; at Hsp104^WT (Suramin 100 µM, 10 min, ATP 1 mM) it was 0.33. Further, the “Normalized ATPase Activity” value at Hsp104^WT (Suramin 250 µM, 10 min, ATP 1 mM) was 0.37. Further, the activity at 25 µM on Hsp104^WT (Suramin 25 µM, 10 min, read-out: Hsp104^WT ATPase activity relative to uninhibited Hsp104) came out at 30%. Moreover, the inhibition at 100 µM against Hsp104^WT (Suramin 100 µM, 10 min) was greater than 60%. Also, the activity at 100 µM at Hsp104^WT (Suramin 100 µM, 10 min, read-out: Hsp104^WT ATPase activity relative to uninhibited protein) was roughly 35%. Moreover, the entries for the “Normalized Luciferase Refolding Activity” value in assay [1] (Suramin 25 µM) and in assay [1] (Suramin 100 µM) were 0.12 and 0.03, respectively. Also, the “Rescue of inhibition by Hsp70 and Hsp40” value in assay [1] (disaggregation reaction with Hsp70 and Hsp40) was “not rescued by inclusion of Hsp70 and Hsp40”. The “Effect on substrate translocation (FITC-casein degradation by HAP/ClpP)” value in assay [2] (Suramin 25 µM) is recorded as “permits translocation activity equivalent to that by untreated HAP in conjunction with ClpP”; in assay [2] (Suramin 100 µM), “completely abolished substrate translocation”. The “Effect on Hsp104 hexamerization (gel filtration elution profile)” value at Hsp104 is listed as “does not interfere with hexamerization”.

What is called IC50 is the concentration needed to halve the response being measured. Lower therefore signals greater potency. The inhibition is the change of the read-out against control, counted positive when it falls.
